The values below come from the NIST ThermoML archive (doi:10.1021/je7001144).

For this data set the following is noted: Liquid, Ebulliometric method (Recirculating still).

Numbers after ± are expanded uncertainties.

For orientation: vapor or sublimation pressure means the equilibrium pressure above the liquid or solid. `FC(F)=C(F)Cl` [1-chloro-1,2,2-trifluroethene]: the “vapor or sublimation pressure” value is reported as 248 ± 1 kPa (267.67 K), 294.4 ± 1.2 kPa (272.54 K), 347.8 ± 1.4 kPa (277.45 K) and 408.1 ± 1.6 kPa (282.62 K).
Take `C=COC(F)(F)F` [perfluoromethyl vinyl ether]: the “vapor or sublimation pressure” value is, setting by setting: (267.67 K) 222.4 ± 0.9 kPa; (272.54 K) 264.7 ± 1.1 kPa; (277.45 K) 313.2 ± 1.3 kPa; (282.62 K) 367.3 ± 1.5 kPa.
